# Experimental data from patent US20100119528A1, “Transport of Biologically Active Molecules into a Cell, Mitochondrion, or Nucleus” (priority 2008, published 2010).
# Tested on: mitochondria
# Assay: Peptide-mediated delivery of cargo into cells/mitochondria (fluorescence microscopy)
# Type: cell-based
# Procedure: Cells, indicated above, were grown in 8-well culture slides. Peptide/protein complexes were formed in a volume of 100 μl in OptiMEM and incubated for 30 min at 37° C. Approximately 10,000 Cells grown to 75% confluence were overlaid with these preformed complexes. After 30 min of incubation at 37° C., 500 μl of fresh DMEM supplemented with 10% FBS was added to the cells and incubated for an additional 30 min. Cells were then washed with PBS followed by fixing with 4% paraformaldehyde in PBS. Cells were then mounted with flourescent-FragEL Mounting media (Calbiochem) containing DAPI nuclear stain before microscopic analysis. See, e.g., FIGS. 1, 2, 3, and 11.
substance,measurement,setting,value
AAVALLPAVLLALLAPMSVLTPLLLRGLTGSARRLPVPRAKIHSL (AAVALLPAVLLALLAPMSVLTPLLLRGLTGSARRLPVPRAKIHSL) [SEQ ID NO:19],delivery of Alexa-IgG into mitochondria,"FIG. 1, 10 picomol Alexa-tagged IgG, SEQ ID NO:19 from 0 to 2000 pm, orange = red plus green stain",Alexa-IgG complex has entered the mitochondria
same,delivery of FITC-tagged oligonucleotide,"FIG. 2, green = mitochondria stained by FITC complex, blue = DAPI nucleus",demonstrates delivery of FITC-tagged oligonucleotide
same,delivery of double-stranded circular plasmid (~5.5 kb) into the mitochondria,"FIG. 3, DNA stain, small blue dots = mitochondria",delivery of a double-stranded circular plasmid (˜5.5 kb) into the mitochondria
